Laboratory results from US6551815B1, “In situ denitrification” (University of New Mexico, priority 1997, dated 2003).
“And” between values parts separate entries of the source, which are not always exact repeats. Equal values may be shown once. “Also recorded” adds a separate entry of the source. Read-outs that look alike come from different tables or passages of the source.

Assays:
[1] = Phosphate precipitation in amended groundwater (serum bottles); type: physicochemical; settings: for calcium phosphate precipitation as compared to orthophosphate: Tuba City groundwater
Protocol: Stock solution mixtures with neutral pH and total volume less than 15 mL for denitrification amendment, including carbon source and phosphorus sources, 0.05 mL of a 0.2% resazurin solution (redox potential indicator), and 8 g crushed sand for part experiments, were added into a 160 mL serum bottle, which was then autoclaved at 121° C. (250° F.) for 20 min. Groundwater sample was added under aseptic environment after the bottle cooled down, and the serum bottle was sealed with a butyl rubber stopper and crimped with an aluminum seal. Total volume of the liquid was about 100 to 120 mL. […] The exhaustion needle was taken out before the spinal needle was done, and the serum bottle was pressurized under 7-10 psig. To keep the gas phase sterile, a gas filter with 0.2 μm pore size was used. Serum bottles were kept either at room temperature about 23±1° C. and shaken 2 to 3 times every day or kept at 16° C. in a Lindberg/Blue M constant temperature refrigerated shaker waterbath model RSWB3222A (A General Signal Company, NC). No denitrifying bacteria were inoculated to water samples, and pH was not controlled for all of the experiments. Denitrification process via the activity of the indigenous denitrifiers present in the groundwater was monitored. Disposable syringes were used for sampling.
Triple serum bottle experiments were run in parallel at room temperature about 23±1° C.

indigenous bacteria = assay: Batch denitrification of Mountainview groundwater; type: cell-based
[2] = system: indigenous denitrifying bacteria naturally present in the groundwater; assay: Serum bottle denitrification of Tuba City groundwater amended with carbon and phosphorus sources; type: cell-based; settings: for concentration (as high as) at which activity of denitrifiers was not inhibited: initial nitrate about 21 mM
Protocol: In situ biological denitrification was studied as a groundwater remediation process with nitrogen as the final product at an UMTRA site in Tuba City, Ariz. Nitrate contaminated groundwater and soil from the contaminated field site were used, and in all experiments the initial nitrate concentration was about 1300 mg/L and the pH was 7.5-8. Denitrification was studied in a 2.5 L fermentor and in 120 mL serum bottles using a water to soil ratio of 100 mL/8 g and indigenous denitrifying bacteria naturally present in the groundwater. Oxygen was removed initially by purging with argon for 15 minutes. […] Nitrate, nitrite, carbon source, and pH changes were monitored during denitrification. Eh was indicated using a resazurin dye. […] For each carbon source, the stoichiometric equation is present, and a theoretical yield coefficient was determined from each stoichiometric equation.
The water samples were kept in 1000 mL plastic bottles and reserved in a refrigerator.
Chemicals used for phosphorus amendment included orthophosphate KH2PO4, trimetaphosphate Na3P3O9 (Sigma Co.) and polyphosphate (NaPO3)n (Aldrich Co.). All chemicals were A.C.S. reagent grade. Crushed sands were prepared by pulverizing the core samples (about 47 to 100 feet depth) from the Tuba City site using a pestle and mortar. This Navajo sandstone is a fine to fine grained unit with median grain size diameter (d50) about 0.11 mm. The sandstone was kept without contamination by organic chemicals.
Stock solution mixtures with neutral pH and total volume less than 15 mL for denitrification amendment, including carbon source and phosphorus sources, 0.05 mL of a 0.2% resazurin solution (redox potential indicator), and 8 g crushed sand for part experiments, were added into a 160 mL serum bottle, which was then autoclaved at 121° C. (250° F.) for 20 min. Groundwater sample was added under aseptic environment after the bottle cooled down, and the serum bottle was sealed with a butyl rubber stopper and crimped with an aluminum seal. Total volume of the liquid was about 100 to 120 mL. The solution was then purged with argon gas through a 22 gauge long needle for 15 min to ensure that an anaerobic environment was maintained, and another needle was used for gas exhaustion at the same time. The exhaustion needle was taken out before the spinal needle was done, and the serum bottle was pressurized under 7-10 psig. To keep the gas phase sterile, a gas filter with 0.2 μm pore size was used. Serum bottles were kept either at room temperature about 23±1° C. and shaken 2 to 3 times every day or kept at 16° C. in a Lindberg/Blue M constant temperature refrigerated shaker waterbath model RSWB3222A (A General Signal Company, NC). No denitrifying bacteria were inoculated to water samples, and pH was not controlled for all of the experiments. Denitrification process via the activity of the indigenous denitrifiers present in the groundwater was monitored. Disposable syringes were used for sampling.
The IC unit, Dionex DX 500 chromatography system (Dionex Co., CA), consists of a GP 40-1 gradient pump, an ED 40-1 electrochemical detector, and a LC 10-2 chromatography organizer with an lonpac AS 11 analytical column (4 mm) and an ASRS-1 (4 mm) anion self-regenerating suppresser as its main components. This lonpac AS 11 4-mm analytical column with functional group of alkanol quaternary ammonium is designed to resolve a number of inorganic anions and organic acid anions from a single sample injection in one gradient run using hydroxide eluent systems such as NaOH used in our experiment.

[3] = serum bottles purged with argon
[4] = complete = <1 mg/L for N, core sand, KH2PO4, 23±1° C.
[5] = groundwater with core sand, KH2PO4 100 mg/L, 23±1° C.

Q: With `O=P1([O-])OP(=O)([O-])OP(=O)([O-])O1.[Na+].[Na+].[Na+]` [TMP, trimetaphosphate] as the compound, how does the “calcium phosphate precipitation as compared to orthophosphate” value [1] read?
A: reduced calcium phosphate precipitation

Q: What about the “phosphate precipitate observed in groundwater” value [1, 3] of the same compound?
A: No phosphate precipitate was found in three weeks; also recorded: No phosphate precipitate was found while purging with argon, even in two weeks

Q: What about the “denitrification via indigenous bacteria” value (indigenous bacteria; groundwater amended with potassium acetate and 20 mg TMP/L) of the same compound?
A: worked successfully

Q: And the “time to complete denitrification” value ([2]; TMP 100 mg NaPO3/L and acetate, with sand, 16° C.)?
A: 28 days

Q: What about the “denitrification time longer than with orthophosphate” value ([2]; TMP and acetate, with sand, 16° C.) of the same compound?
A: 11 days

Q: For `O=P(O)(O)O` [orthophosphate, reference compound], which “phosphate precipitate observed in groundwater” value [1, 3] is on record?
A: Precipitate of orthophosphate (0.7-0.8 mM) formed

Q: With `CO` [Methanol, methanol] as the compound, how does the “minimum C/N molar ratio for complete denitrification” value (“minimum C/N molar ratio” below) [2, 4] read?
A: 1

Q: And the “C/N molar ratio for nearly complete denitrification (Table 5)” value (shortened to “C/N molar ratio … (Table 5)”) [2, 5]?
A: 1.000

Q: What about the “C/N molar ratio, minimum for nearly complete denitrification” value (from here on “C/N molar ratio, minimum”) [2, 5] of the same compound?
A: 1.000

Q: And the “concentration (as high as) at which activity of denitrifiers was not inhibited” value [2]?
A: 45 mM

Q: What does the source list for polyphosphate?
A: calcium phosphate precipitation as compared to orthophosphate [1]: reduced calcium phosphate precipitation; phosphate precipitate observed in groundwater ([1]; acetate and polyphosphate, no core sand, without purging with argon): Phosphate precipitate was not found; also recorded: White precipitates were not found until a week later; phosphate precipitate observed in groundwater [1, 3]: precipitate was found right after purging with argon; also recorded: white precipitates appeared while purging with argon

Q: With `CC(=O)[O-].[K+]` [Acetate, potassium acetate] as the compound, how does the “denitrification via indigenous bacteria” value (indigenous bacteria; potassium acetate without TMP) read?
A: did not work

Q: And the “C/N molar ratio … (Table 5)” value [2]?
A: 1.425

Q: And the “C/N molar ratio, minimum” value [2]?
A: 1.425

Q: What about the Denitrification efficiency [2] of the same compound?
A: 0% and 7-10%

Q: And the “minimum C/N molar ratio” value [2]?
A: 1.425

Q: What about the “nitrate reduced after two months” value [2] of the same compound?
A: 5%

Q: Which “minimum C/N molar ratio” value [2, 4] does the source give for `CC(O)C(=O)[O-].[Na+]` (stereo not shown) [Lactate, sodium lactate] here?
A: 2

Q: What about the “C/N molar ratio … (Table 5)” value [2, 5] of the same compound?
A: 2.000

Q: What about the “C/N molar ratio, minimum” value [2, 5] of the same compound?
A: 2.000

Q: Which “minimum C/N molar ratio” value [2, 4] does the source give for `CCO` [Ethanol, ethanol] here?
A: 1.083

Q: What about the “C/N molar ratio … (Table 5)” value [2, 5] of the same compound?
A: 1.083

Q: What about the “C/N molar ratio, minimum” value [2, 5] of the same compound?
A: 1.083

Q: And the “concentration (as high as) at which activity of denitrifiers was not inhibited” value [2]?
A: 25 mM

Q: What about the denitrification time ([2]; orthophosphate, whole group of experiments finished, FIG. 5(f)) of the same compound?
A: about 3.5 weeks

Q: What about the “time at which nitrate reduction completed or stopped” value ([2]; polyphosphate 100 mg NaPO3/L, core sand, argon purge, 23±1° C., ethanol insufficient for complete denitrification) of the same compound?
A: about 30 days
